Results from US9180171B2, “Method of regulating fertilizing ability using cyclic ADP-ribose and CD38” (Industrial Cooperation Foundation Chonbuk National …, priority 2011, dated 2015).
Entries after “also recorded” stand apart in the source; their conditions may differ.

Assays:
sperm [1] = experiment: Measurement of calcium in sperm cells (fluo-3, confocal microscopy); type: cell-based, human
Description: In order to measure intracellular calcium release, the sperm suspension pretreated with fluo-3 (molecular probe, USA) was titrated in a confocal dish (SPL, Seoul, Korea) coated with poly-L-lysine (Sigma-Aldrich, USA) and was allowed to react in a CO2 incubator for 20 minutes to attach the cells. Calcium in the cells was measured by a confocal microscopy system (Nikon) using the method of Tsien et al. (Tsien et al., Nature 295, 68-71 (1982)).

mouse oocytes = experiment: In vitro fertilization test; type: cell-based, mice; conditions: prostasome-bound sperm pretreated with antagonist
Description: In vitro fertilization was performed using a modification of the method of Ren et al. (Ren et al., Nature 413, 603-609 (2001)). 10-12-week-old mice were injected with pregnant mare serum gonadotropin (PMSG) (5 IU; Sigma-Aldrich), and after 48 hours, injected with human chorionic gonadotropin (hCG) (5 IU; Sigma-Aldrich). 14 hours after the final injection, the uterine tube was removed and perfused with IVF medium (Medicult, USA), and the released oocytes were collected using a low-magnification microscope. In order to collect sperm, the epididymis of male mice was removed and cut into small pieces with scissors in the same medium, and swum-out sperm were collected. The number of cells in the sperm was measured, and the sperm were used in the test.

sperm [2] = experiment: Test for motility of sperm by CD38; type: cell-based; conditions: for CD38-induced increase in motility of sperm with inhibitor: sperm treated with inhibitor, then CD38; for motility of sperm: sperm treated with CD38
Description: The relationship between CD31 activation by CD38 and sperm motility was analyzed. […] Also, it was seen that, when sperm were treated with the ERK1/2 inhibitor PD98059 and the ras-GTP inhibitor (FTI-277) and then treated with CD38, the increase in the motility of the sperm was inhibited.

sperm [3] = experiment: Acrosome reaction of sperm by CD38 (ConA-FITC, A23187); type: cell-based; conditions: for acrosome reaction of CD38-treated sperm with inhibitor: inhibitor of downstream signaling of CD31
Description: To examine the acrosome reaction of sperm, ConA-FITC binding specifically to the acrosome of sperm was used. The isolated sperm were allowed to react with purified CD38 at 37° C. for 2 hours, and then were treated for 40 min with calcium ionophore A23187 that increases calcium in sperm to induce the acrosome reaction of sperm. Then, the sperm were placed on a glass slide, and the acrosome reaction of the sperm was examined with a fluorescence microscope.

sperm [4] = experiment: Formation of cGDPR, cyclic ADP-ribose and NAADP in prostasome-bound or -unbound sperm; type: cell-based, human
Description: The isolated sperm were diluted with a weakly alkaline buffer or fusion buffer (150 mM NaCl, 1 mM CaCl2, 1 mM MgCl2, 5 mM glucose with either 2 mM Hepes (pH 8.0) or 20 mM MES (pH 5.0, fusion buffer)) containing 0.32 M sucrose. The dilution was mixed with prostasome such that the ratio of prostasome:sperm protein was 2:1. The mixture was allowed to react at 37° C. for 15 minutes. The reaction product was centrifuged at 600×g for 10 minutes, and the precipitate was collected, resuspended in BWW buffer and used in the experiment. […] Also, the binding of prostasome was the highest at a pH of 5.0 similar to the internal acidity of the female vagina and decreased toward alkaline pH values. […] In order to examine the formation of cyclic ADP-ribose and nicotinic acid adenine dinucletide phosphate which are typical metabolites of CD38, the sperm to which prostasome was unbound or bound was treated with progesterone, after which the level of each molecule in the sperm was measured at varying points of time.

sperm [5] = experiment: Test for sperm motility by prostasome (CASA); type: cell-based, human; conditions: prostasome-bound sperm treated with progesterone
Description: Sperm motility was measured using a CASA (computer assisted sperm analysis) system (IVOS, Hamilton Thorne Biosciences, USA). The sperm suspension was titrated onto a sperm analysis slide (2X-CEL, Hamilton Thorne Biosciences, USA) having a depth of 20 μm and was automatically photographed using a 4× magnification lens, followed by analysis.

CD31 = biological target: T1, CD31 (Homo sapiens, UniProt P16284); experiment: Test for activation of CD31 in sperm by CD38 (immunoprecipitation, Western blot); type: cell-based; conditions: sperm treated with 600 ng/ml CD38 for 0, 15, 30 min
T1 construct: endogenous in cells; host or cells: isolated sperm
Description: In order to test the activation of CD31 in sperm, the isolated sperm were treated with 600 ng/ml CD38 for each of 0 min, 15 min and 30 min, and then buffer was added thereto to lyse the cells. Also, CD31 antibody was used to perform immunoprecipitation, and Western blot was performed using each antibody in order to examine the phosphorylation of CD31 and to examine interacting proteins.

`N=c1c2nc(Br)n3c2ncn1C1OC(COP(=O)(O)OP(=O)(O)OCC2OC3C(O)C2O)C(O)C1O` (stereo not drawn) [8-Br-cADPR] was tested, and the “pattern of a continuous increase in calcium by progesterone” value (sperm [1]; prostasome-bound sperm pretreated with antagonist, then progesterone) was “inhibited” and the “reduction of fertilizing ability” value (mouse oocytes) was “about 70%”.

For `COC(=O)[C@H](CCSC)NC(=O)c1ccc(NC[C@@H](N)CS)cc1-c1ccccc1` [FTI-277], the “CD38-induced increase in motility of sperm with inhibitor” value (sperm [2]) was “inhibited”.

In the case of `COc1cccc(-c2cc(=O)c3ccccc3o2)c1N` [PD98059], the “acrosome reaction of CD38-treated sperm with inhibitor” value (sperm [3]) is reported as “inhibited” and the “CD38-induced increase in motility of sperm with inhibitor” value (sperm [2]) is reported as “inhibited”.

For `CN(C)S(=O)(=O)c1ccc2c(c1)/C(=C/c1cc3c([nH]1)CCCC3)C(=O)N2` [Su6656], the “acrosome reaction of CD38-treated sperm with inhibitor” value (sperm [3]) was “inhibited”.

`CC(=O)[C@H]1CC[C@H]2[C@@H]3CCC4=CC(=O)CC[C@]4(C)[C@H]3CC[C@]12C` [progesterone] was tested, and the “formation of nicotinic acid adenine dinucletide phosphate in sperm” value (sperm [4]; prostasome-bound or -unbound sperm treated with progesterone) was “not formed”, the “synthesis of cyclic ADP-ribose in sperm” value (sperm [4]; prostasome-bound sperm treated with progesterone, within several seconds) was “rapidly increased” and the “increase of sperm motility” value (sperm [5]) was “about 2 times”. For the same compound, the “intracellular calcium release by progesterone” value (sperm [1]; prostasome-bound sperm) was “intracellular calcium release immediately occurred” and the “intracellular calcium reaction by progesterone” value (sperm [1]; prostasome-unbound sperm) was “immediate calcium reaction”.

In the case of “CD38: purified water-soluble CD38 (sCD38), ADP-ribosyl cyclase, a cell membrane protein”, the “acrosome reaction of sperm” value (sperm [3]; sperm with purified CD38 at 37° C. for 2 hours, then A23187 40 min) is reported as “significantly increased”, the “phosphorylation of CD31” value (CD31) is reported as “increased with time; also recorded: increased over time” and the motility of sperm (sperm [2]) is reported as “significantly increased”. For the same compound, the motility of sperm (sperm [2]; listed as sCD38) was “increased”.
